Measurements taken from ChEMBL document CHEMBL5360532, “Current scenario of quinolone hybrids with potential antibacterial activity against ESKAPE pathogens” (Eur J Med Chem, 2023).
Values after ≈ are worked out from the molar mass of the structure shown. One block for each compound: values may come before it.

What was measured:
Escherichia coli [1] = assay: Antibacterial activity against Escherichia coli ATCC35218 assessed as bacterial growth inhibition measured after 18 to 24 hrs inhibition by broth microdilution assay; assay type: functional; conditions: time 18-24 hrs
Pseudomonas aeruginosa [2] = assay: Antibacterial activity against Pseudomonas aeruginosa ATCC43288 assessed as bacterial growth inhibition measured after 18 to 24 hrs inhibition by broth microdilution assay; assay type: functional; conditions: time 18-24 hrs
Pseudomonas aeruginosa [3] = assay: Antibacterial activity against Pseudomonas aeruginosa […] assessed as bacterial growth inhibition measured after 18 to 24 hrs inhibition by broth microdilution assay; assay type: functional; conditions: time 18-24 hrs
SiHa = assay: Growth inhibition of human SiHa cells measured after 48 hrs by SRB assay; assay type: functional
MDA-MB-231 = assay: Growth inhibition of human MDA-MB-231 cells measured after 48 hrs by SRB assay; assay type: functional
Escherichia coli [4] = assay: Antibacterial activity against Escherichia coli assessed as bacterial growth inhibition by agar streak dilution assay; assay type: functional
Klebsiella pneumoniae [5] = assay: Antibacterial activity against Klebsiella pneumoniae assessed as bacterial growth inhibition by agar streak dilution assay; assay type: functional
Staphylococcus aureus [6] = assay: Antibacterial activity against Staphylococcus aureus assessed as bacterial growth inhibition by agar streak dilution assay; assay type: functional
Staphylococcus aureus [7] = assay: Antibacterial activity against Staphylococcus aureus ATCC 25923 assessed as zone of inhibition at 50 mg/ml by agar diffusion assay; assay type: functional; conditions: read-out: IZ
Escherichia coli [8] = assay: Antibacterial activity against Escherichia coli ATCC 25922 assessed as zone of inhibition at 50 mg/ml by agar diffusion assay; assay type: functional; conditions: read-out: IZ
Staphylococcus aureus [9] = assay: Antibacterial activity against Staphylococcus aureus clinical isolate assessed as zone of inhibition at 50 mg/ml by agar diffusion assay; assay type: functional; conditions: read-out: IZ
Escherichia coli [10] = assay: Antibacterial activity against Escherichia coli clinical isolate assessed as zone of inhibition at 50 mg/ml by agar diffusion assay; assay type: functional; conditions: read-out: IZ
Staphylococcus aureus [11] = assay: Antibacterial activity against Staphylococcus aureus assessed as bacterial growth inhibition measured after 16 to 24 hrs by broth microdilution assay; assay type: functional; conditions: time 16-24 hrs
Staphylococcus aureus [12] = assay: Antibacterial activity against methicillin resistant Staphylococcus aureus assessed as bacterial growth inhibition measured after 16 to 24 hrs by broth microdilution assay; assay type: functional; conditions: time 16-24 hrs
Enterococcus = assay: Antibacterial activity against vancomycin resistant Enterococcus assessed as bacterial growth inhibition measured after 16 to 24 hrs by broth microdilution assay; assay type: functional; conditions: time 16-24 hrs
Streptococcus agalactiae = assay: Antibacterial activity against Streptococcus agalactiae assessed as bacterial growth inhibition measured after 16 to 24 hrs by broth microdilution assay; assay type: functional; conditions: time 16-24 hrs
Haemophilus influenzae = assay: Antibacterial activity against Haemophilus influenzae assessed as bacterial growth inhibition measured after 16 to 24 hrs by broth microdilution assay; assay type: functional; conditions: time 16-24 hrs
Staphylococcus aureus [13] = assay: Antibacterial activity against Staphylococcus aureus ATCC 25923 assessed as bacterial growth inhibition measured after 18 to 24 hrs by agar dilution assay; assay type: functional; conditions: time 18-24 hrs
Staphylococcus aureus [14] = assay: Potency index, ratio of ciprofloxacin MIC to test compound MIC for antibacterial activity against Staphylococcus aureus ATCC 25923 assessed as bacterial growth inhibition measured after 18 to 24 hrs by agar dilution assay; assay type: functional; conditions: time 18-24 hrs
Staphylococcus aureus [15] = assay: Antibacterial activity against Staphylococcus aureus ATCC 25923 assessed as bacterial growth inhibition measured after 18 to 24 hrs by two fold microdilution assay; assay type: functional; conditions: time 18-24 hrs
Escherichia coli [16] = assay: Antibacterial activity against Escherichia coli ATCC 35218 assessed as bacterial growth inhibition measured after 18 to 24 hrs by two fold microdilution assay; assay type: functional; conditions: ATCC35218, time 18-24 hrs
Klebsiella pneumoniae [17] = assay: Antibacterial activity against Klebsiella pneumoniae assessed as bacterial growth inhibition measured after 18 to 24 hrs by two fold microdilution assay; assay type: functional; conditions: time 18-24 hrs
Aspergillus niger [18] = assay: Antifungal activity against Aspergillus niger assessed as fungal growth inhibition by agar well diffusion assay; assay type: functional
Candida albicans = assay: Antifungal activity against Candida albicans assessed as fungal growth inhibition by agar well diffusion assay; assay type: functional
Escherichia coli [19] = assay: Antibacterial activity against Escherichia coli assessed as bacterial growth inhibition by agar cup diffusion assay; assay type: functional
Pseudomonas aeruginosa [20] = assay: Antibacterial activity against Pseudomonas aeruginosa assessed as bacterial growth inhibition by agar cup diffusion assay; assay type: functional
Aspergillus niger [21] = assay: Antifungal activity against Aspergillus niger assessed as fungal growth inhibition by agar cup diffusion assay; assay type: functional
Aspergillus fumigatus = assay: Antifungal activity against Aspergillus fumigatus assessed as fungal growth inhibition by agar cup diffusion assay; assay type: functional
[22] = Anticancer activity against EAC cell assessed as cell growth inhibition measured after 24 to 72 hrs by MTT assay; assay type: functional, cell-based; conditions: Ehrlich
HT-29 = assay: Anticancer activity against human HT-29 cell assessed as cell growth inhibition measured after 24 to 72 hrs by MTT assay; assay type: functional, cell-based
WRL68 = assay: Anticancer activity against human WRL68 cell assessed as cell growth inhibition measured after 24 to 72 hrs by MTT assay; assay type: functional, cell-based
Klebsiella pneumoniae [23] = assay: Antibacterial activity against Klebsiella pneumoniae AUMC B-77 assessed as bacterial growth inhibition by agar cup diffusion method; assay type: functional
Staphylococcus aureus [24] = assay: Antibacterial activity against Staphylococcus aureus assessed as bacterial growth inhibition by broth microdilution assay; assay type: functional
Escherichia coli [25] = assay: Antibacterial activity against Escherichia coli assessed as bacterial growth inhibition by broth microdilution assay; assay type: functional
Pseudomonas aeruginosa [26] = assay: Antibacterial activity against Pseudomonas aeruginosa assessed as bacterial growth inhibition by broth microdilution assay; assay type: functional
Klebsiella pneumoniae [27] = assay: Antibacterial activity against Klebsiella pneumoniae assessed as bacterial growth inhibition by two fold microdilution assay; assay type: functional
Escherichia coli [28] = assay: Antibacterial activity against Escherichia coli ATCC 8739 assessed as bacterial growth inhibition by two fold microdilution assay; assay type: functional
Staphylococcus aureus [29] = assay: Antibacterial activity against Staphylococcus aureus ATCC 6538P assessed as bacterial growth inhibition by two fold microdilution assay; assay type: functional
Acinetobacter baumannii = assay: Antibacterial activity against Acinetobacter baumannii assessed as bacterial growth inhibition by agar dilution assay; assay type: functional
Pseudomonas aeruginosa [30] = assay: Antibacterial activity against Pseudomonas aeruginosa ATCC 27853 assessed as bacterial growth inhibition by agar dilution assay; assay type: functional
Staphylococcus aureus [31] = assay: Antibacterial activity against Staphylococcus aureus assessed as bacterial growth inhibition by agar dilution assay; assay type: functional
Staphylococcus aureus [32] = assay: Antibacterial activity against methicillin resistant Staphylococcus aureus assessed as bacterial growth inhibition by agar dilution assay; assay type: functional
Escherichia coli [33] = assay: Potency index, ratio of ciprofloxacin MIC to test compound MIC for antimicrobial activity against Escherichia coli assessed as bacterial growth inhibition by agar cup diffusion assay; assay type: functional

Structure (SMILES): O=C(O)c1cn(C2CC2)c2cc(N3CCN(Cn4nc(CN5CCN(c6ccc([N+](=O)[O-])cc6)CC5)oc4=S)CC3)c(F)cc2c1=O
MIC (Escherichia coli [1]): 0.03 µg/mL (≈ 0.0451 µM)
MIC (Pseudomonas aeruginosa [2]): 0.03 µg/mL (≈ 0.0451 µM)
MIC (Pseudomonas aeruginosa [3]): 0.03 µg/mL (≈ 0.0451 µM)

Structure (SMILES): COC(=O)c1cn(C2CC2)c2cc(N3CCN(C(=O)c4nnn(-c5ccc(OC)cc5)c4N)CC3)c(F)cc2c1=O
zone of inhibition at 50000 µg/mL (Staphylococcus aureus [7]): 26.3 mm
zone of inhibition at 50000 µg/mL (Escherichia coli [8]): 26.3 mm
zone of inhibition at 50000 µg/mL (Staphylococcus aureus [9]): 26.3 mm
zone of inhibition at 50000 µg/mL (Escherichia coli [10]): 26.3 mm

Structure (SMILES): CC(=O)NC[C@H]1CN(c2ccc(N3CCOCC3)c(F)c2)C(=O)O1 [LINEZOLID]
MIC (Staphylococcus aureus [11]): 1 µg/mL (≈ 2.96 µM)
MIC (Staphylococcus aureus [12]): 1 µg/mL (≈ 2.96 µM)
MIC (Enterococcus): 1 µg/mL (≈ 2.96 µM)
MIC (Streptococcus agalactiae): 1 µg/mL (≈ 2.96 µM)
MIC (Haemophilus influenzae): 1 µg/mL (≈ 2.96 µM)

Structure (SMILES): Clc1ccccc1C(c1ccccc1)(c1ccccc1)n1ccnc1 [CLOTRIMAZOLE]
MIC (Aspergillus niger [18]): 1.56 µg/mL (≈ 4.52 µM)
MIC (Candida albicans): 1.28 µg/mL (≈ 3.71 µM)

Structure (SMILES): CCn1cc(C(=O)O)c(=O)c2cc(F)c(N3CCN(CC(=O)Nc4ccc(/C(C)=N/O)cc4)CC3)cc21
MIC (Klebsiella pneumoniae [23]): 0.08 µg/mL (≈ 0.157 µM)

Structure (SMILES): CCn1cc(C(=O)O)c(=O)c2cc(F)c(N3CCNCC3)cc21 [NORFLOXACIN]
MIC (Staphylococcus aureus [24]): ≤ 0.125 µg/mL
MIC (Escherichia coli [25]): ≤ 0.125 µg/mL
MIC (Pseudomonas aeruginosa [26]): ≤ 0.125 µg/mL
MIC (Klebsiella pneumoniae [27]): ≤ 0.125 µg/mL
MIC (Escherichia coli [28]): ≤ 0.125 µg/mL
MIC (Staphylococcus aureus [29]): ≤ 0.125 µg/mL
MIC (Acinetobacter baumannii): ≥ 4 µg/mL
MIC (Pseudomonas aeruginosa [30]): ≥ 4 µg/mL
MIC (Staphylococcus aureus [31]): ≥ 4 µg/mL
MIC (Staphylococcus aureus [32]): ≥ 4 µg/mL
MIC (Klebsiella pneumoniae [23]): 0.5 µg/mL (≈ 1.57 µM)

Structure (SMILES): O=C(O)c1cn(C2CC2)c2cc(N3CCN(C(=O)CCSc4nnnn4Cc4ccccc4)CC3)c(F)cc2c1=O
Ratio (Escherichia coli [33]): 2
GI50 (SiHa): 70 nM
GI50 (MDA-MB-231): 80 nM

Further lines, with some results ahead:

GI50 (MDA-MB-231): 240 nM
Structure (SMILES): CC/C(=C(\c1ccccc1)c1ccc(OCCN(C)C)cc1)c1ccccc1 [TAMOXIFEN]
GI50 (SiHa): 120 nM

MIC (Escherichia coli [4]): 0.9 µg/mL (≈ 1.62 µM)
MIC (Klebsiella pneumoniae [5]): 0.9 µg/mL (≈ 1.62 µM)
MIC (Staphylococcus aureus [6]): 0.9 µg/mL (≈ 1.62 µM)
Structure (SMILES): CNc1ccc([S+]([O-])N2CCN(c3c(F)c(C)c4c(=O)c(C(=O)O)cn(C5CC5)c4c3OC)CC2C)cc1C (centres undefined)

MIC (Staphylococcus aureus [13]): 3.12 µg/mL (≈ 5.73 µM)
Structure (SMILES): COC(=O)c1cn(C2CC2)c2cc(N3CCN(Cc4cn(-c5ccc(C(C)=O)cc5)nn4)CC3)c(F)cc2c1=O
Ratio (Staphylococcus aureus [14]): 2

MIC (Staphylococcus aureus [15]): < 0.24 µg/mL
MIC (Escherichia coli [16]): < 0.24 µg/mL
MIC (Klebsiella pneumoniae [17]): < 0.24 µg/mL
Structure (SMILES): O=C(O)c1cn(C2CC2)c2cc(N3CCN(Cn4nc(CN5CCN(c6ccc(F)cc6)CC5)n(-c5ccccc5)c4=O)CC3)c(F)cc2c1=O

MIC (Escherichia coli [19]): 0.2 µg/mL (≈ 0.423 µM)
MIC (Pseudomonas aeruginosa [20]): 0.2 µg/mL (≈ 0.423 µM)
MIC (Aspergillus niger [21]): 9.8 µg/mL (≈ 20.7 µM)
MIC (Aspergillus fumigatus): 9.8 µg/mL (≈ 20.7 µM)
Structure (SMILES): Nc1ccc(-c2nnc(-c3cn(C4CC4)c4cc(C(=O)c5ncc[nH]5)c(F)cc4c3=O)o2)c(O)c1

IC50 (HT-29): 259 nM
Structure (SMILES): COc1cccc2c1C(=O)c1c(O)c3c(c(O)c1C2=O)C[C@@](O)(C(=O)CO)C[C@@H]3O[C@H]1C[C@H](N)[C@H](O)[C@H](C)O1 [DOXORUBICIN]
IC50 [22]: 259 nM
IC50 (WRL68): 259 nM

MIC (Staphylococcus aureus [15]): < 0.24 µg/mL
MIC (Escherichia coli [16]): < 0.24 µg/mL
MIC (Klebsiella pneumoniae [17]): < 0.24 µg/mL
Structure (SMILES): CCn1cc(C(=O)O)c(=O)c2cc(F)c(N3CCN(Cn4nc(CN5CCN(c6ccc(F)cc6)CC5)n(-c5ccccc5)c4=O)CC3)cc21
